Values quoted from earlier work in patent US20110208437A1, “METHOD AND APPARATUS FOR I[…] SAFE AND E[…] REGIMEN” (THE MCLEAN HOSPITAL CORPORATION, priority 2008, published 2011).

Tests used:
[1] = clinical trials, adults and children
[2] = biological target: dopamine reuptake (Homo sapiens, UniProt Q01959)
[3] = 2.5 mg Focalin same therapeutic benefit as 5.0 mg Ritalin
[4] = oral administration of the same mg/kg dose

dopamine reuptake, sequence (Q01959 whole entry): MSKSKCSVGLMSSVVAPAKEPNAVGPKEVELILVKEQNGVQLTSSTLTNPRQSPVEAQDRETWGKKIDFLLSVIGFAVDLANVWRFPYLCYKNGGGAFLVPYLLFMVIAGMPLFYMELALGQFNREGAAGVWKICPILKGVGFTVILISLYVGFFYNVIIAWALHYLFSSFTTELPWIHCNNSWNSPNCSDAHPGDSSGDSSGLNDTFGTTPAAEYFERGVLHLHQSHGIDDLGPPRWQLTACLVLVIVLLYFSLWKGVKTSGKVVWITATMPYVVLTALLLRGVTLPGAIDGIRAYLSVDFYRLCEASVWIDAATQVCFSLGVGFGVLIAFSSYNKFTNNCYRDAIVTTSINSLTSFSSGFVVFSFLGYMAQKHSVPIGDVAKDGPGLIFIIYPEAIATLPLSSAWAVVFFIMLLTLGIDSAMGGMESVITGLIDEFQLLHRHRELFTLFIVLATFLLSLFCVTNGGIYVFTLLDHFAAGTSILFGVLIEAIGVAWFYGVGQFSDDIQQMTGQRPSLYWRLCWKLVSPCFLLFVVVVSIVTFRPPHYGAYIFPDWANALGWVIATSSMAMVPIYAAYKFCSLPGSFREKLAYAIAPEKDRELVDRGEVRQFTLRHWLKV

CNCC[C@@H](Oc1ccccc1C)c1ccccc1 [Atomoxetine]
coverage of symptoms associated with ADHD [1]: 24 h

CC(NC(C)(C)C)C(=O)c1cccc(Cl)c1 (stereo not shown) [Bupropion]
potency as inhibitor of dopamine reuptake relative to norepinephrine reuptake [2]: twice as potent

COC(=O)[C@H](c1ccccc1)[C@H]1CCCCN1 [Focalin]
potency relative to methylphenidate [3]: twice as potent

COC(=O)C(c1ccccc1)C1CCCCN1 (stereo not shown) [IR-MPH, methylphenidate]
differences between individuals in peak blood levels (Cmax) [4]: 2-3 fold
